Test results as given in patent US20230085307A1, “PYRIDAZINONE COMPOUND AND HERBICIDE” (NISSAN CHEMICAL CORPORATION, priority 2019, published 2023).

Key:
late watergrass = experiment: Test Example 2: herbicidal activity, application during weed generation under submerged conditions (Table 17, symbol A); assay type: in vivo, late watergrass (Echinochloa oryzicola); details: AAH 320 g/ha; application during weed generation, submerged conditions
Method in brief: (§1)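 Wagner pot, alluvial soil, 4 cm flood; mixed sowing of all species; greenhouse 25° C.–30° C. Emulsifiable formulation, water-diluted to predetermined dose, applied to paddy water at 1–2 leaf stage. Effect rated at 3 wk using the earlier test's scoring criteria.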

Japanese bulrush = experiment: Test Example 2: herbicidal activity, application during weed generation under submerged conditions (Table 17, symbol B); assay type: in vivo, Japanese bulrush (Schoenoplectus juncoides); details: AAH 320 g/ha; application during weed generation, submerged conditions
Method in brief: as §1

oval-leafed pondweed = experiment: Test Example 2: herbicidal activity, application during weed generation under submerged conditions (Table 17, symbol C); assay type: in vivo, oval-leafed pondweed (Monochoria vaginalis); details: AAH 320 g/ha; application during weed generation, submerged conditions
Method in brief: as §1

barnyard grass [1] = experiment: Test Example 3: herbicidal effect by foliage application, Wagner pot (Table 18, symbol H); assay type: in vivo, barnyard grass (Echinochloa crus-galli); details: 320 g/ha
Method in brief: (§2)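 Plants were sown in alluvial soil held under 0.1–0.5 cm standing water and grown 14 days in a greenhouse at 25–30 °C. An emulsifiable formulation, water-diluted to the set dose, was then sprayed onto the foliage, and effects were scored three weeks later using previously defined criteria.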

Chinese sprangletop = experiment: Test Example 3: herbicidal effect by foliage application, Wagner pot (Table 18, symbol D); assay type: in vivo, chinese sprangletop (Leptochloa chinensis); details: 320 g/ha
Method in brief: as §2

rice flat sedge = experiment: Test Example 3: herbicidal effect by foliage application, Wagner pot (Table 18, symbol E); assay type: in vivo, rice flat sedge (Cyperus iria); details: 320 g/ha
Method in brief: as §2

southern crabgrass [2] = experiment: Test Example 4: herbicidal effect by soil treatment (Table 19, symbol F); assay type: in vivo, southern crabgrass (Digitaria ciliaris); details: amount of applied herbicide 320 g/ha
Method in brief: (§3)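 Three weeks of greenhouse growth at 25° C. to 30° C. followed a uniform surface spray of water-diluted emulsion at a predetermined herbicide amount. Seeds had been sown beforehand under about 1.5 cm of sterilized diluvial soil. Grading followed criteria set out in an earlier test.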

green foxtail [3] = experiment: Test Example 4: herbicidal effect by soil treatment (Table 19, symbol G); assay type: in vivo, green foxtail (Setaria viridis); details: amount of applied herbicide 320 g/ha
Method in brief: as §3

barnyard grass [4] = experiment: Test Example 4: herbicidal effect by soil treatment (Table 19, symbol H); assay type: in vivo, barnyard grass (Echinochloa crus-galli); details: amount of applied herbicide 320 g/ha
Method in brief: as §3

wild oat [5] = experiment: Test Example 4: herbicidal effect by soil treatment (Table 19, symbol I); assay type: in vivo, wild oat (Avena fatua); details: amount of applied herbicide 320 g/ha
Method in brief: as §3

blackgrass [6] = experiment: Test Example 4: herbicidal effect by soil treatment (Table 19, symbol J); assay type: in vivo, blackgrass (Alopecurus myosuroides); details: amount of applied herbicide 320 g/ha
Method in brief: as §3

Italian ryegrass [7] = experiment: Test Example 4: herbicidal effect by soil treatment (Table 19, symbol K); assay type: in vivo, Italian ryegrass (Lolium multiflorum); details: amount of applied herbicide 320 g/ha
Method in brief: as §3

windgrass [8] = experiment: Test Example 4: herbicidal effect by soil treatment (Table 19, symbol L); assay type: in vivo, windgrass (Apera spica-venti); details: amount of applied herbicide 320 g/ha
Method in brief: as §3

velvetleaf [9] = experiment: Test Example 4: herbicidal effect by soil treatment (Table 19, symbol M); assay type: in vivo, velvetleaf (Abutilon theophrasti); details: amount of applied herbicide 320 g/ha
Method in brief: as §3

redroot pigweed [10] = experiment: Test Example 4: herbicidal effect by soil treatment (Table 19, symbol N); assay type: in vivo, redroot pigweed (Amaranthus retroflexus); details: amount of applied herbicide 320 g/ha
Method in brief: as §3

lambsquarters [11] = experiment: Test Example 4: herbicidal effect by soil treatment (Table 19, symbol O); assay type: in vivo, lambsquarters (Chenopodium album); details: amount of applied herbicide 320 g/ha
Method in brief: as §3

chickweed [12] = experiment: Test Example 4: herbicidal effect by soil treatment (Table 19, symbol P); assay type: in vivo, common chickweed (Stellaria media); details: amount of applied herbicide 320 g/ha
Method in brief: as §3

false cleavers [13] = experiment: Test Example 4: herbicidal effect by soil treatment (Table 19, symbol Q); assay type: in vivo, false cleavers (Galium spurium); details: amount of applied herbicide 320 g/ha
Method in brief: as §3

persian speedwell [14] = experiment: Test Example 4: herbicidal effect by soil treatment (Table 19, symbol R); assay type: in vivo, Persian speedwell (Veronica persica); details: amount of applied herbicide 320 g/ha
Method in brief: as §3

southern crabgrass [15] = experiment: Test Example 5: herbicidal effect by foliage application, plastic box (Table 20, symbol F); assay type: in vivo, southern crabgrass (Digitaria ciliaris); details: foliage application, 320 g/ha, evaluated three weeks after application
Method in brief: (§4)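 Plants sown in sterilized diluvial soil and grown 14 days in a greenhouse at 25° C to 30° C, then sprayed on the foliage with the compound's emulsion diluted in water to a predetermined herbicide amount. Injury to weeds and crops scored three weeks after application on a visual rating scale.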

green foxtail [16] = experiment: Test Example 5: herbicidal effect by foliage application, plastic box (Table 20, symbol G); assay type: in vivo, green foxtail (Setaria viridis); details: foliage application, 320 g/ha, evaluated three weeks after application
Method in brief: as §4

barnyard grass [17] = experiment: Test Example 5: herbicidal effect by foliage application, plastic box (Table 20, symbol H); assay type: in vivo, barnyard grass (Echinochloa crus-galli); details: foliage application, 320 g/ha, evaluated three weeks after application
Method in brief: as §4

wild oat [18] = experiment: Test Example 5: herbicidal effect by foliage application, plastic box (Table 20, symbol I); assay type: in vivo, wild oat (Avena fatua); details: foliage application, 320 g/ha, evaluated three weeks after application
Method in brief: as §4

blackgrass [19] = experiment: Test Example 5: herbicidal effect by foliage application, plastic box (Table 20, symbol J); assay type: in vivo, blackgrass (Alopecurus myosuroides); details: foliage application, 320 g/ha, evaluated three weeks after application
Method in brief: as §4

Italian ryegrass [20] = experiment: Test Example 5: herbicidal effect by foliage application, plastic box (Table 20, symbol K); assay type: in vivo, Italian ryegrass (Lolium multiflorum); details: foliage application, 320 g/ha, evaluated three weeks after application
Method in brief: as §4

windgrass [21] = experiment: Test Example 5: herbicidal effect by foliage application, plastic box (Table 20, symbol L); assay type: in vivo, windgrass (Apera spica-venti); details: foliage application, 320 g/ha, evaluated three weeks after application
Method in brief: as §4

velvetleaf [22] = experiment: Test Example 5: herbicidal effect by foliage application, plastic box (Table 20, symbol M); assay type: in vivo, velvetleaf (Abutilon theophrasti); details: foliage application, 320 g/ha, evaluated three weeks after application
Method in brief: as §4

redroot pigweed [23] = experiment: Test Example 5: herbicidal effect by foliage application, plastic box (Table 20, symbol N); assay type: in vivo, redroot pigweed (Amaranthus retroflexus); details: foliage application, 320 g/ha, evaluated three weeks after application
Method in brief: as §4

lambsquarters [24] = experiment: Test Example 5: herbicidal effect by foliage application, plastic box (Table 20, symbol O); assay type: in vivo, lambsquarters (Chenopodium album); details: foliage application, 320 g/ha, evaluated three weeks after application
Method in brief: as §4

chickweed [25] = experiment: Test Example 5: herbicidal effect by foliage application, plastic box (Table 20, symbol P); assay type: in vivo, common chickweed (Stellaria media); details: foliage application, 320 g/ha, evaluated three weeks after application
Method in brief: as §4

false cleavers [26] = experiment: Test Example 5: herbicidal effect by foliage application, plastic box (Table 20, symbol Q); assay type: in vivo, false cleavers (Galium spurium); details: foliage application, 320 g/ha, evaluated three weeks after application
Method in brief: as §4

persian speedwell [27] = experiment: Test Example 5: herbicidal effect by foliage application, plastic box (Table 20, symbol R); assay type: in vivo, Persian speedwell (Veronica persica); details: foliage application, 320 g/ha, evaluated three weeks after application
Method in brief: as §4

CCCC(=O)Oc1c(C)nn(C)c(=O)c1-c1c(-c2ccc(OC)cc2)sc2ccc(Cl)cc12 [2-104]
herbicidal effect rating, A: late watergrass (late watergrass): 0 (Herbicidal rate of 5% or less (almost no effect))
herbicidal effect rating, B: Japanese bulrush (Japanese bulrush): 0 (Herbicidal rate of 5% or less (almost no effect))
herbicidal effect rating, C: oval-leafed pondweed (oval-leafed pondweed): 2 (Herbicidal rate of 20% or more and less than 40%)
herbicidal effect on H (barnyard grass), rating 0-5 (barnyard grass [1]): 3 (Herbicidal rate of 40% or more and less than 70%)
herbicidal effect on D (Chinese sprangletop), rating 0-5 (Chinese sprangletop): 0 (Herbicidal rate of 5% or less (almost no effect))
herbicidal effect on E (rice flat sedge), rating 0-5 (rice flat sedge): 5 (Herbicidal rate of 90% or more (almost completely withered))
F: southern crabgrass, herbicidal effect rating (southern crabgrass [2]): 0 (Herbicidal rate of 5% or less (almost no effect))
G: green foxtail, herbicidal effect rating (green foxtail [3]): 0 (Herbicidal rate of 5% or less (almost no effect))
H: barnyard grass, herbicidal effect rating (barnyard grass [4]): 0 (Herbicidal rate of 5% or less (almost no effect))
I: wild oat, herbicidal effect rating (wild oat [5]): 0 (Herbicidal rate of 5% or less (almost no effect))
J: blackgrass, herbicidal effect rating (blackgrass [6]): 0 (Herbicidal rate of 5% or less (almost no effect))
K: Italian ryegrass, herbicidal effect rating (Italian ryegrass [7]): 0 (Herbicidal rate of 5% or less (almost no effect))
L: windgrass, herbicidal effect rating (windgrass [8]): 0 (Herbicidal rate of 5% or less (almost no effect))
M: velvetleaf, herbicidal effect rating (velvetleaf [9]): 3 (Herbicidal rate of 40% or more and less than 70%)
N: redroot pigweed, herbicidal effect rating (redroot pigweed [10]): 4 (Herbicidal rate of 70% or more and less than 90%)
O: lambsquarters, herbicidal effect rating (lambsquarters [11]): 3 (Herbicidal rate of 40% or more and less than 70%)
P: chickweed, herbicidal effect rating (chickweed [12]): 3 (Herbicidal rate of 40% or more and less than 70%)
Q: false cleavers, herbicidal effect rating (false cleavers [13]): 0 (Herbicidal rate of 5% or less (almost no effect))
R: persian speedwell, herbicidal effect rating (persian speedwell [14]): 5 (Herbicidal rate of 90% or more (almost completely withered))
herbicidal effect on F: southern crabgrass (southern crabgrass [15]): 0 (Herbicidal rate of 5% or less (almost no effect))
herbicidal effect on G: green foxtail (green foxtail [16]): 0 (Herbicidal rate of 5% or less (almost no effect))
herbicidal effect on H: barnyard grass (barnyard grass [17]): 0 (Herbicidal rate of 5% or less (almost no effect))
herbicidal effect on I: wild oat (wild oat [18]): 0 (Herbicidal rate of 5% or less (almost no effect))
herbicidal effect on J: blackgrass (blackgrass [19]): 0 (Herbicidal rate of 5% or less (almost no effect))
herbicidal effect on K: Italian ryegrass (Italian ryegrass [20]): 0 (Herbicidal rate of 5% or less (almost no effect))
herbicidal effect on L: windgrass (windgrass [21]): 0 (Herbicidal rate of 5% or less (almost no effect))
herbicidal effect on M: velvetleaf (velvetleaf [22]): 3 (Herbicidal rate of 40% or more and less than 70%)
herbicidal effect on N: redroot pigweed (redroot pigweed [23]): 3 (Herbicidal rate of 40% or more and less than 70%)
herbicidal effect on O: lambsquarters (lambsquarters [24]): 2 (Herbicidal rate of 20% or more and less than 40%)
herbicidal effect on P: chickweed (chickweed [25]): 5 (Herbicidal rate of 90% or more (almost completely withered))
herbicidal effect on Q: false cleavers (false cleavers [26]): 1 (Herbicidal rate of 5% or more and less than 20%)
herbicidal effect on R: persian speedwell (persian speedwell [27]): 5 (Herbicidal rate of 90% or more (almost completely withered))
